Tests used:
Jurkat (human T cell) = assay: Cell attachment on coated low-attachment polystyrene wells; format: cell-based; conditions: 10^4 cells/well, serum-containing medium
Description: (§1) Several cell types were used, including GS-9L cells (rat gliosarcoma), C3H10T1/2 (murine fibroblasts), Jurkat (human T cell), bovine aorta endothelial (BAE) cells and rat lymphocytes. GS-9L and C3H10T1/2 cells were maintained in log phase growth and detached from cultureware using Versene and collected by centrifugation. Jurkat cells grew as single cell suspensions and were collected by centrifugation. Rat lymphocytes were collected from heparinized blood by density gradient isolation over Ficoll-Hypaque® media. The collected cells were rinsed once by low speed centrifugation and suspended in either serum-free Dulbecco's Modified Eagles Medium (DMEM) containing pyruvate or RPMI 1640 containing 10% fetal bovine serum (FBS) supplemented with pyruvate. Aliquots of 10^4 cells in 100 μL were used in subsequent adhesion studies.
(§2) The cells were examined after plating using an inverted, phase-contrast microscope. […] The amount of attachment was scored visually or quantitated. To establish the relative number of cells bound, crystal violet stained cells were dissolved in a solution of 70% ethanol containing 0.1% sodium dodecyl sulfate and 0.38 M Tris and the absorbance monitored at 610 nm, using the methods of Scragg and Ferreira (Anal Biochem 198:80-5, 1991) and Grando et al. (Skin Pharmacol 6:135-47, 1993). […]

rat lymphocytes = assay: as above; format: cell-based; conditions: 10^4 cells/well, serum-containing medium
Description: as §1, §2

[1] = tested on: thigh muscle of adult rats; assay: Coated Vicryl sutures implanted in muscle, histology; format: in vivo; conditions: two weeks; compared to control suture
Description: Vicryl suture material was coated using a solution containing silyl-heparin complex or a solution containing silyl-heparin complex followed by immersion in bFGF as described above. The suture material was then rinsed extensively, air-dried, mounted on 16 gage needles and stored until use, typically overnight. Under anesthesia, the sutures were passed through the thigh muscle of adult rats and secured with knots and surgical clips. After two weeks the animals were euthanized and the sutured area removed, fixed in formalin, and processed by standard histological methods.

[2] = tested on: Bovine aorta endothelial cells; assay: Capillary tube formation on coated low attachment wells; format: cell-based; conditions: 5×10^3 cells per well; DMEM containing 10% FBS; 4 days; phase contrast microscopy
Description: Low attachment 96 well plates were coated with saline, silyl-heparin complex, silyl-heparin-fibrinogen complex or silyl-heparin-bFGF complex. Bovine aorta endothelial cells (5×10^3 cells) were seeded into each well in DMEM containing 10% FBS. The cells were allowed to grow for 4 days and the cultures examined by phase contrast microscopy.

C3H10T1/2 cells [3] = assay: Cross-titration of fibronectin and silyl-heparin needed to support cell attachment; format: cell-based, murine; conditions: silyl-heparin titrated from 30 μg/well, fibronectin then applied at 4 μg/well; 24 hours; crystal violet, 610 nm
Description: The optimal amount of fibronectin and silyl-heparin to support attachment of C3H10T1/2 cells was determined by cross-titration, as shown on FIG. 1. […] The fall-off for the silyl-heparin was more gradual. The curve of the relative amount of silyl-heparin on the substrate following serial dilution generally followed the cell attachment curve.
In FIG. 1, fibronectin (Δ—Δ) or silyl-heparin (•—•) were titrated to determine the quantity needed to support attachment of C3H10T1/2 cells. All dilutions were performed in quadruplicate in wells of 96-well plates of low-attachment polystyrene. For titration of fibronectin, silyl-heparin was applied at 30 μg/well in 70% ethanol as in Example 4. After rinsing, fibronectin was applied in doubling dilutions of phosphate buffered saline starting from 4 μg/well. For titration of silyl-heparin, silyl-heparin was applied in doubling dilutions in 70% ethanol starting from silyl-heparin concentrations of 30 μg/well. Fibronectin was then applied in saline at 4 μg/well. Cells were at a concentration of 10^4 cells/well in growth medium. For both experiments, the cells were allowed 24 hours to attach and then were rinsed and fixed in buffered formalin. The cells were stained for 5 minutes with 0.01% aqueous crystal violet and the absorbance at 610 nm determined.

C3H10T1/2 cells [4] = assay: C3H10T1/2 cell attachment to a variety of coated substrates; format: cell-based, murine
Description: The cells were examined after plating using an inverted, phase-contrast microscope. At selected time points up to 4 days after initial seeding, the cells were rinsed three times in saline and fixed in buffered 10% formalin or 35% ethanol. In some cases, the cells were stained in situ with a 0.01 % aqueous solution of crystal violet. The amount of attachment was scored visually or quantitated. To establish the relative number of cells bound, crystal violet stained cells were dissolved in a solution of 70% ethanol containing 0.1% sodium dodecyl sulfate and 0.38 M Tris and the absorbance monitored at 610 nm, using the methods of Scragg and Ferreira (Anal Biochem 198:80-5, 1991) and Grando et al. (Skin Pharmacol 6:135-47, 1993).
The general applicability of silyl-heparin-fibronectin complex was evaluated by applying this coating using the methods of Examples 4 and 5 to a variety of surfaces, including polystyrene, polylactide:polyglycolide, polycaprolactone, polyurethane and stainless steel. […] They did, however, bind moderately well to polylactide:polyglycolide and to polycaprolactone, and very well to stainless steel.

bFGF = target: T1, bFGF (Homo sapiens, UniProt P09038); assay: bFGF binding to silyl-heparin coated polystyrene wells, immunoassay
T1 construct: purchased Sigma Chemical Co
T1 sequence (P09038 143-288, species assumed): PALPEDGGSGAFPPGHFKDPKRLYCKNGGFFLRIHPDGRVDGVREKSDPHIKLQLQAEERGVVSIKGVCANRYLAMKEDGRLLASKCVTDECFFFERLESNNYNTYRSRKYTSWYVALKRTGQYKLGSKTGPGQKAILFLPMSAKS
Description: Wells of 96 well polystyrene microtiter plates, with a well surface area of 0.32 cm^2, were coated with 30 μl of silyl heparin for 15 minutes at 37° C. After rinsing and air-drying, bFGF (Sigma Chemical Co.) in PBS/BSA was added in 150 μL aliquots in doubling dilutions. The plate was incubated at 37° C. for 1 hour and rinsed 5 times in PBS. An aliquot 150 μl of PBS/BSA containing 1:500 rabbit anti-FGF antibodies were added, incubated for 1 hour and rinsed. In some cases an irrelevant rabbit antibody was used at a similar concentration (rabbit anti-TGF-receptor II, Santa Cruz Biotechnology). An aliquot of PBS/BSA containing 1:500 HRPO-conjugated donkey anti-rabbit IgG added, and after incubation and rinsing ABTS-chromogen added. All antibody solutions were filtered through 0.2 micron filters prior to use. The absorbance was monitored at 405 nm. […] When anti-TGF-II (irrelevant antibody directed against the transforming growth factor receptor) was used instead of anti-FGF and at the same anti-dilutions, no bFGF was detected. When TGF-β, at a concentration of 40 ng was used as the growth factor molecule, no activity was detected with anti-bFGF antibodies.

## benzyl-(1,2 dimethyl)disilyl heparin [silyl-heparin]
Jurkat (human T cell)
  CELL ATTACHMENT: did not attach
Rat lymphocytes
  CELL ATTACHMENT: did not attach
[1]
  diameter or area of granulation tissue surrounding the suture: tended to have a smaller area of granulation
[2]
  capillary tube formation: Tubes did not form
C3H10T1/2 cells [3]
  EC50 to support attachment of C3H10T1/2 cells: about 8.7 μg/well
C3H10T1/2 cells [4]; cells cultured for up to 4 days
  C3H10T1/2 cell attachment on prolonged culture: no cell attachment was evident
C3H10T1/2 cells [4]; regardless of the substrate
  effect of coating or treatment on C3H10T1/2 cell attachment: essentially eliminated cell attachment
C3H10T1/2 cells [4]; surface: Stainless steel, determined by crystal violet staining
  C3H10T1/2 CELL ATTACHMENT: inhibition of cell attachment was noted
bFGF; color development linear at high concentrations
  upper saturation limit of the silyl-heparin complex for bFGF: had not been reached
bFGF; immunoassays
  binding of bFGF to silyl-heparin complexes on a contacting surface: readily bound
  binding of both fibrinogen and bFGF to heparin on a silyl-heparin complex: without displacement of either
